Data taken from patent US20230285570A1, “THERAPEUTICALLY USEFUL CURE-PRO MOLECULES FOR E3 LIGASE MEDIATED DEGRADATION OF PROTEINS, AND METHODS OF MAKING AND USING THEM” (CORNELL UNIVERSITY, priority 2020, published 2023).
Entries after “also recorded” stand apart in the source; their conditions may differ.

Experiments:
BRD4 [1] = target: T1, BRD4 (Homo sapiens, UniProt O60885); test: CURE-PRO-mediated BRD4 degradation in MCF7 cells, Western blot; type: cell-based; set-up: endogenous in cells; conditions: 1:1 with VHL ligand 8305, MCF7, 24 h, 100 nM-10 μM
Protocol: (§1) Namalwa, Ramosm HeLa, MCF7, or HT29 HCT116 cells (2.5-3×10^6) were treated for 24 hours with the indicated compounds solubilized in DMSO. The cells were washed in ice-cold PBS and were then lysed in RIPA lysis buffer (150 mM NaCl, 5 mM EDTA, 1% NP-40, 0.5% sodium deoxycholate, 0.1% SDS, 50 mM Tris, pH 8.0.) with Roche protease inhibitor complete cocktail and phosphatase inhibitors (10 mM sodium fluoride, 10 mM sodium pyrophosphate, 1 mM sodium orthovanadate and 20 mM β-glycerophosphate). The total protein concentrations were determined by Bradford Protein Assay (Pierce) and 10-20 μg of protein was loaded onto 4-15% Tris-Glycine gradient gels (Biorad). After standard gel electrophoresis, the separated proteins were transferred to PVDF membrane by wet transfer. The immunoblots were then blocked for 1 hour in 5% skim milk in TBST or 5% BSA in TBST, according to manufacturer's instructions, before an overnight incubation at 4° C. with indicated antibodies and membranes. Membranes were then incubated with the appropriate horseradish peroxidase-conjugated secondary antibodies (1:5,000 dilution) for 1 h at room temperature and the bands were visualized using the Clarity Max Western ECL Substrate (Biorad) and the ChemiDoc Imaging System (Biorad). Signal was detected with ECL Western Blotting Substrate (Pierce) and X-ray film processed with a Konica SRX-101 X-ray film processor or captured by Bio-Rad's Chemidoc Imaging system.
MCF7 cells (3×10^6) were treated for 24 h with the compounds solubilized in DMSO. Compounds were added at 100 nM-10 μM. Standardized protein samples were electrophoresed and imaged as described in the Immunoblotting section above. FIG. 69 depicts the CURE-PRO-mediated BRD4 degradation for the BRD-E9 monomer and VHL ligands 8305 combined in a 1:1 ratio, and FIG. 70 depicts the CURE-PRO-mediated BRD4 degradation for the BRD-E20 monomer and 8305.
MCF7 cells (3×10^6) were treated for 24 h with the compounds solubilized in DMSO. Compounds were added at 1 μM-10 μM. Standardized protein samples were electrophoresed and imaged as described in the Immunoblotting section above. FIG. 71 depicts the CURE-PRO-mediated BRD4 degradation for the BRD-E50 monomer and VHL ligands 8305 and 8304 combined in a 1:1 ratio.

BRD4 [2] = target: T1, BRD4; test: CURE-PRO-mediated BRD4 degradation in MCF7 cells, WES (ProteinSimple); type: cell-based; set-up: endogenous in cells
Protocol: WES Simple analysis was performed on WES system (ProteinSimple-Biotechne) according to the manufacturer's instructions. Total protein concentrations of cell lysates were determined by the Pierce BCA kit (Thermo Fisher). 3 μL of 0.3 μg/μL of the protein lysate was loaded onto a 12- to 230-kDa WES assay plate (ProteinSimple) where 300 nL sample was withdrawn through a capillary, subjected to electrophoretic separation of proteins by size, and followed by the simultaneous, HRP-based detection of proteins using the Anti-Rabbit Detection Module (Proteinsimple: #DM-001). The electropherograms were checked then the automatic peak detection was manually corrected if it was required.
MCF7 cells (3×10^6) were treated for 4-24 hours continually (FIG. 72), or treated for 4 h, washed and incubated for a further 4-24 h with the compounds solubilized in DMSO. Compounds were added at 10 μM each. Cells were washed, lysed, and clarified by centrifugation. The total protein concentration was quantified by the BCA method (ThermoFisher Sciences). Standardized protein samples were electrophoresed and imaged as described in the WES Proteinsimple section above. FIG. 69 depicts the CURE-PRO-mediated BRD4 degradation for the BRD-E50 monomer, and VHL ligand, 8305.
MCF7 cells (3×10^6) were treated for 24 hours with the compounds solubilized in DMSO. CURE-PRO monomers were added at 10 μM each and the proteasomal inhibitors at 1 μM. Standardized protein samples were electrophoresed and imaged as described in the WES Proteinsimple section above. FIGS. 73 and 75 depicts the dependence of the proteasome for CURE-PRO-mediated BRD4 degradation.
MCF7 cells (3×10^6) were treated for 24 hours with the compounds solubilized in DMSO. CURE-PRO monomers were added at 10 μM. FIG. 74 depicts the CURE-PRO-mediated BRD4 degradation for the BRD-E50 monomer, and VHL ligand, 8305 combined in a 1:1 ratio after 24 h.

BRD3 = target: T2, BRD3 (Homo sapiens, UniProt Q15059); test: BRD protein family degradation in HCT116 cells, Western blot: BRD3; type: cell-based; conditions: 1:1 with MDM2 ligands 8310 and 8312 (each), HCT116, 24 h, 100 nM-10 μM
T2 construct: endogenous in cells; host or cells: HCT116
T2 sequence (Q15059 whole entry): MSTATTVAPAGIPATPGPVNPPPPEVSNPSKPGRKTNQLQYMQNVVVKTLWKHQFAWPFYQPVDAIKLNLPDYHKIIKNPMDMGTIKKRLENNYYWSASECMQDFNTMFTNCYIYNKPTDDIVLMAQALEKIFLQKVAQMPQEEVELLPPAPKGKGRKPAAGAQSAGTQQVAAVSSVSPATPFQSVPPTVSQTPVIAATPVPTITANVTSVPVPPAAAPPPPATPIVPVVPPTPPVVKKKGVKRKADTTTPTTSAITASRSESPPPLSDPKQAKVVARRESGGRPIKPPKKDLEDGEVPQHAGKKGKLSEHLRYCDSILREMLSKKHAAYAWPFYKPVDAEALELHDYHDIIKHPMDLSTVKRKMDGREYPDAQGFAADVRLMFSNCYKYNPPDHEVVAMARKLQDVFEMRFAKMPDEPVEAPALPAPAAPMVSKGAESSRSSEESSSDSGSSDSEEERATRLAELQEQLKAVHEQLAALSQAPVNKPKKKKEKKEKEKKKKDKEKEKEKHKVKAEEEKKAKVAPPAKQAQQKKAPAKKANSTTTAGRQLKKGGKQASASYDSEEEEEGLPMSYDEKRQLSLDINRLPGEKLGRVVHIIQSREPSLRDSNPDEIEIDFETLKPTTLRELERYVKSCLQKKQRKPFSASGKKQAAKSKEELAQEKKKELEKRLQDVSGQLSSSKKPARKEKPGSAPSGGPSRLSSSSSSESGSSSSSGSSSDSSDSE
Protocol: as §1, with “Membranes were then incubated with the appropriate horseradish peroxidase-conjugated secondary antibodies (1:5,000 dilution) for 1 h at room temperature and the bands were visualized using the Clarity Max Western ECL Substrate (Biorad) and the ChemiDoc Imaging System (Biorad).” left out, “system. […]” for “system.”

SLC19A1 = test: RT-PCR of c-MYC downstream target gene SLC19A1 in HeLa cells; type: cell-based, Human; conditions: 10 μM each, 24 h
Protocol: The suppression of the expression of the downstream c-MYC target, SLC19A1, was measured by RT-PCR using Power SYBR® Green Cells-to-Ct™ Kit (Life Technologies). Adherent cells were plated on 96 well plates at 5,000 cells per well were treated for 24 h with monomer compounds and compounds capable of reversible interactions (1 nM-100 μM). Cells were subsequently washed in ice-cold PBS processed according to the manufacturer's instructions. Quantitative real-time PCR was performed using a ViiA™ 7 Real-time PCR System (Applied Biosystems, Foster City, Calif., USA). GAPDH and ACTB served as internal controls.
HeLa cells (1×10^4) were treated for 24 hours in 96 well plates with the compounds solubilized in DMSO. Compounds were added at 10 μM each and RNA expression measured by the Cells-to Ct method described above (Thermofisher).

BRD2 = target: T3, BRD2 (Homo sapiens, UniProt P25440); test: BRD protein family degradation in HCT116 cells, Western blot: BRD2; type: cell-based; conditions: 1:1 with MDM2 ligands 8310 and 8312 (each), HCT116, 24 h, 100 nM-10 μM
T3 construct: endogenous in cells; host or cells: HCT116
T3 sequence (P25440 whole entry): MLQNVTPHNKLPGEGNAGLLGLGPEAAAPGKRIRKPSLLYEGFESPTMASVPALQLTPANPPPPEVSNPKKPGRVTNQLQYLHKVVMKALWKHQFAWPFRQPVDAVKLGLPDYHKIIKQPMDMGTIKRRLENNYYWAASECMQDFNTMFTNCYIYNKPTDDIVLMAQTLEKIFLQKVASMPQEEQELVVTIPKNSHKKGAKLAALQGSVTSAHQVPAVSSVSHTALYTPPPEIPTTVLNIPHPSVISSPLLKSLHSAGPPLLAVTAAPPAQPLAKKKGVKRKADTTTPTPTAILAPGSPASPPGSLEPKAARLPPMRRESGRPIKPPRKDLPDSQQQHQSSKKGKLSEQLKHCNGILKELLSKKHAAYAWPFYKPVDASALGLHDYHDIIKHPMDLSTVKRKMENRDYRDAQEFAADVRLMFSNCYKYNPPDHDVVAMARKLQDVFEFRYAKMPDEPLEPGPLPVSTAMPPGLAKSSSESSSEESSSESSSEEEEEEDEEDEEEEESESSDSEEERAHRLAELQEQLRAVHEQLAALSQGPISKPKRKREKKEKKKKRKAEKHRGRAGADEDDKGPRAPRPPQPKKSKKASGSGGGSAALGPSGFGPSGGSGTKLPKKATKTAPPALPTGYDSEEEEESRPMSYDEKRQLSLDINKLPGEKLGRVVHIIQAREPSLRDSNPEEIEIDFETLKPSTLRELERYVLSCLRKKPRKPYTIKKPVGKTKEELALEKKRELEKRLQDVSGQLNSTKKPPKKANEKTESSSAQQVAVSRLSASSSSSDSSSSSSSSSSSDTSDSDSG
Protocol: as §1, with “Membranes were then incubated with the appropriate horseradish peroxidase-conjugated secondary antibodies (1:5,000 dilution) for 1 h at room temperature and the bands were visualized using the Clarity Max Western ECL Substrate (Biorad) and the ChemiDoc Imaging System (Biorad).” left out, “system. […]” for “system.”

Structure (SMILES)	BRD4 degradation (BRD4 [1])	BRD4 degradation with proteasome inhibitors (BRD4 [2]; 1:1 with 8305 at 10 μM, pre-incubation with MG-132 and Carfilzomib 1 μM, MCF7)	BRD4 degradation (BRD4 [2]; 1:1 with VHL ligand 8305, MCF7, 10 μM each, 4-24 h)	BRD4 degradation (BRD4 [2]; co-incubated with VHL ligand 8304, MCF7, 10 μM each)	BRD3 degradation (BRD3)	suppression of SLC19A1 expression (SLC19A1; combined with MDM2 ligand 8310, HeLa)	suppression of SLC19A1 expression (SLC19A1; combined with MDM2 ligand 8312, HeLa)	BRD2 degradation (BRD2)
CCNC(=O)C[C@@H]1N=C(c2ccc(Cl)cc2)c2cc(OCCCCC(=O)Nc3cccc(B(O)O)c3)ccc2-n2c(C)nnc21 [BRD-E20, (3-(5-(((4S)-6-(4-chlorophenyl)-4-(2-(ethylamino)-2-oxoethyl)-1-methyl-4H-benzo[f][1,2,4]triazolo[4,3-a][1,4]diazepin-8-yl)oxy)pentanamido)phenyl)boronic acid]	there is degradation of BRD4	inhibited by the pre-incubation with MG-132 and Carfilzomib; also recorded: inhibited with the proteasome inhibitors, MG-132 and Carfilzomib	caused BRD4 degradation; also recorded: marked BRD4 degradation	failed to induce BRD4 degradation	–	–	–	–
CCNC(=O)C[C@@H]1N=C(c2ccc(Cl)cc2)c2cc(OCCOCCNC(=O)c3cccc(O)c3O)ccc2-n2c(C)nnc21 [BRD-N39, N-(2-(2-(((4S)-6-(4-chlorophenyl)-4-(2-(ethylamino)-2-oxoethyl)-1-methyl-4H-benzo[f][1,2,4]triazolo[4,3-a][1,4]diazepin-8-yl)oxy)ethoxy)ethyl)-2,3-dihydroxybenzamide]	–	–	–	–	degradation of BRD3; also recorded: Degradation is evident	suppression to levels comparable to that of JQ1 treatment	Complete suppression; also recorded: completely suppressed	BRD2 to a lesser extent; also recorded: Degradation is evident
